According to ChEMBL document CHEMBL1159195, “Purine and nucleoside metabolites from the Antarctic sponge Isodictya erinacea” (1998):
Values after ≈ are worked out from the molar mass of the structure shown. Active and inactive are the calls of the source. The calls are words filed in the database; no cut-off is given here.

Experiments:
Perknaster fuscus = experiment: Deterrent activity against Perknaster fuscus assessed as induction of sustained retractions of tube-feet by sea-star deterrent assay; type: functional, organism-based
[1] = test system: Staphylococcus epidermidis; experiment: Antimicrobial activity against Staphylococcus epidermidis at 120 ug/disk after 48 hrs by paper disk method; type: functional, organism-based
Staphylococcus aureus = experiment: Antimicrobial activity against Staphylococcus aureus at 120 ug/disk after 48 hrs by paper disk method; type: functional, organism-based
Escherichia coli = experiment: Antimicrobial activity against […] coli at 120 ug/disk after 48 hrs by paper disk method; type: functional, organism-based
L5178Y = experiment: Cytotoxicity against mouse L5178Y cells by trypan blue exclusion method; type: functional; conditions: read-out: LD50 (the source's name)

Cn1c(N)nc2c(ncn2C)c1=O
Activity (Perknaster fuscus): inactive

Nc1ccn([C@H]2C[C@H](O)[C@@H](CO)O2)c(=O)n1
Activity (Perknaster fuscus): inactive

O=C(O)CCNc1ncnc2[nH]c(=O)[nH]c12 [ERINACEAN]
Activity [1]: Active | Activity (Staphylococcus aureus): Active | Activity (Escherichia coli): Active | CC50 (L5178Y): 50 µg/mL (≈ 224 µM) | Activity (Perknaster fuscus): inactive

O=Cc1ccc(O)cc1
Activity (Perknaster fuscus): Active

Cn1cnc2ncnc(N)c21
Activity (Perknaster fuscus): inactive

O=c1ccn([C@@H]2O[C@H](CO)[C@@H](O)[C@H]2O)c(=O)[nH]1
Activity (Perknaster fuscus): inactive

O=c1[nH]cnc2c1ncn2[C@@H]1O[C@H](CO)[C@@H](O)[C@H]1O
Activity (Perknaster fuscus): inactive
